According to PMC2954496 (Bioorganic & medicinal chemistry, 2010):
≈ marks a conversion by molar mass, not a printed value.

How the values were obtained:
[1] = test system: HIV-RT; settings: preliminary mechanism of action studies; cited from earlier work
[2] = Water solubility analysis by HPLC; type: physicochemical

Compound: Cc1cc(=O)oc2c3c(ccc12)OC(C)(C)[C@H](OC(=O)[C@@]12CC[C@@](C)(C(=O)O1)C2(C)C)[C@@H]3OC(=O)[C@@]12CC[C@@](C)(C(=O)O1)C2(C)C [Compound 4-MDCK, 4-methyl DCK]
- Inhibition of HIV-RT DNA-dependent DNA polymerase activity [1]: inhibited

Compound: Cc1cc(=O)c2c(C)cc3c(c2o1)[C@@H](OC(=O)[C@@]12CC[C@@](C)(C(=O)O1)C2(C)C)[C@@H](OC(=O)[C@@]12CC[C@@](C)(C(=O)O1)C2(C)C)C(C)(C)O3 [Compound 5, 3′R,4′R-Di-O-(−)-camphanoyl-2,5,2′,2′-tetramethyldihydropyrano[2,3-f]chromone]
- solubility at 1 h [2]: 5.2 µg/mL (≈ 7.99 µM)
